{"source": "patent US7842709B2", "about": "“Method for treating inflammatory diseases of the digestive tract” (Ore Pharmaceuticals Inc., priority 2006, dated 2010)", "key": {"[1]": {"test_system": "NF-κB dependent transcription in recombinant HeLa reporter cells", "assay": "TNFα-induced activation of NF-κB dependent transcription, luciferase reporter in HeLa cells", "type": "cell-based", "conditions": "TNFα 20 ng/ml, 6 hours", "excerpt": "To test the ACE2 inhibitor GL1001 for anti-inflammatory activity relevant to IBD, effects of the compound on activation of NF-κB dependent transcription by TNFα were examined in recombinant reporter cells containing a construct with a luciferase reporter gene under control of NF-κB dependent regulatory sequences, thereby allowing detection of NF-κB dependent transcription by measuring reporter enzyme using a conventional luciferase activity assay based on detection of generated light.\nIn particular, HeLa cells (American Type Culture Collection) were grown in Dulbecco's modified Eagles medium (DMEM) supplemented with 10% fetal calf serum and transiently transfected with an NF-κB-luc construct (Stratagene, Inc.), as follows (with all incubation steps at 37 C unless otherwise indicated). Cells were seeded and grown to about 70% confluency in a 10 cm cell culture dish. Plasmid DNA (10 μg) was added to 1 ml serum free DMEM media in a tube. Fugene 6 transfection reagent (30 μl) (Roche) was then pipetted slowly into the tube and the contents were gently mixed by inversion. The mixture was incubated at room temperature for 15 minutes and then added dropwise to cells in one 10 cm dish. […] Bioluminescence was then measured using a Veritas luminometer (Turner BioSystems). […]"}, "[2]": {"test_system": "LPS induced NF-κB dependent transcription", "assay": "LPS induced NF-κB dependent transcription in extracted organs of NF-κB:Luc mice (luciferase lysate assay)", "type": "in vivo", "conditions": "0.5 mg/kg LPS and GL1001 at 30 mg/1 g vs LPS alone (FIG. 6)", "excerpt": "For luciferase assays, organs were extracted and snap frozen in liquid nitrogen. All tissue samples were placed in lysis buffer with inhibitors (Passive Lysis Buffer (Promega) and Complete Mini Protease Inhibitor Cocktail (Roche, Indianapolis, Ind.)), and were homogenized using a tissue homogenizer (Handishear, Hand-held homogenizer, VirTis, Gardiner, N.Y.). Tissue homogenates were centrifuged and clarified lysates were used for luminometer assays and western blots. For the luminometer assays, Luciferase Assay Substrate (Luciferase Assay System, Promega) was prepared as indicated by the manufacturer and placed in disposable cuvettes. […] Background luminescence readings were obtained and the background readings were subtracted from the luminescent data. Protein concentrations were determined using the BCA Protein Assay Kit (Pierce, Rockford, Ill.) following the manufacturer's protocols and analyzed using a VERSAmax tunable microplate reader and associated Softmax Pro version 3.1.2 software (Molecular Devices, Sunnyvale Calif.). The luminescence for each of the protein lysates was calculated as arbitrary units of light per microgram of protein. […]\nGL1001 was further tested for in vivo anti-inflammatory activity by examining its effects on bacterial LPS induced NF-κB dependent transcription, in NF-κB:Luc mice. […] Luciferase signal was quantitated from several regions of interest. […]"}, "[3]": {"test_system": "activator protein-1 (AP-1)", "assay": "In vivo basal reporter luciferase expression in AP-1:Luc mice", "conditions": "data not shown"}, "[4]": {"test_system": "basal NF-κB dependent transcription", "assay": "In vivo basal NF-κB dependent transcription, abdominal imaging of NF-κB:Luc mice", "conditions": "300 mg/kg subcutaneous, 4 hours; p<0.01", "excerpt": "GL1001 was further tested for in vivo anti-inflammatory activity by examining its effects on basal levels of NF-κB dependent transcription in mice engineered in the germline with a construct containing an NF-κB enhancer linked to a luciferase gene (i.e., NF-κB:Luc mice), such that this NF-κB reporter construct is present in all cells of the mice.\nMore particularly, transgenic NF-κB:Luc mice were generated using three NF-κB response elements from the Igκ light chain promoter fused to a firefly luciferase gene as described by Carlsen et al. (2002) J. Immunol. 168:1441-1446. Pronuclear microinjection of purified construct DNA was used to generate transgenic founders in the C57BL/6 XCBA/J background. Founders were subsequently back crossed to the C57BL/6 albino background. […] Signal data were also quantitated and archived using the Living Image® software. Photons of light were quantitated using an oval region of interest (ROI) of varying sizes depending on the procedure, as described further below.\nTo test for in vivo effects of GL1001 on basal levels of NF-κB dependent transcription, male NF-κB:Luc mice were subjected to quantitative in vivo imaging of the abdominal area (using a fixed ROI of 2.76×3.7 cm) as described above, immediately before, and at 2, […]"}, "[5]": {"test_system": "DSS-induced colitis", "assay": "DSS-induced colitis in Balb/c mice, Example 7", "type": "in vivo", "description": "A study was designed with six groups of Balb/c mice: naïve control, DSS followed by vehicle, DSS followed by GL1001 30 mg/kg/day, DSS followed by GL1001 100 mg/kg/day, DSS followed by GL1001 300 mg/kg/day, and DSS followed by sulfasalazine 150 mg/kg/day. Administration of DSS was via drinking water, from day 1 to day 6 of the study. […] Administration of vehicle, GL1001 and sulfasalazine was subcutaneous, twice daily, from day 6 until termination of the study (day 16). Body weight of each animal was measured at days 1, 3 and 5 (pre-initiation of GL1001 or sulfasalazine treatment) and at days 7, 9, 11 and 13 (post-initiation of GL1001 or sulfasalazine treatment). On these same days, disease activity measurements were recorded, including: • (a) rectal prolapse (0=no prolapse, 1=partial prolapse, 2=moderate prolapse, 3=full prolapse); • (b) stool consistency (0=solid pellet, 1=semi-solid, 2=soft stool, 3=diarrhea); and • (c) fecal occult blood (0=no blood present, 1=occult blood, 2=gross blood). At termination of the study, colon length was determined and histological analysis was conducted as in Example 6."}, "[6]": {"test_system": "Crohn's disease", "conditions": "cited from earlier work"}, "[7]": {"test_system": "NF-κB activity", "conditions": "at least in CD; cited from earlier work"}, "[8]": {"test_system": "ulcerative colitis", "conditions": "5 mg/kg infusions; cited from earlier work"}, "[9]": {"conditions": "after a single dose, 5 mg/kg infusion"}}}
{"compound": "CC(C)C[C@H](N[C@@H](Cc1cncn1Cc1cc(Cl)cc(Cl)c1)C(=O)O)C(=O)O", "note": "[GL1001, (S,S)-2-[1-carboxy-2-[3-(3,5-dichlorobenzyl)-3H-imidazol-4-yl]-ethylamino]-4-methylpentanoic acid]", "values": [{"measurement": "inhibition of TNFα induced activation of NF-κB dependent transcription", "setting": "[1]; 8 nM", "value": "over 80%"}, {"measurement": "maximal inhibition of TNFα induced activation of NF-κB dependent transcription", "setting": "[1]; 0.2 μM", "value": "over 95%"}, {"measurement": "reduction of LPS induced NF-κB-dependent transcription in stomach", "setting": "[2]", "value": "about 37 fold"}, {"measurement": "effect on basal in vivo levels of reporter luciferase expression in AP-1:Luc mice", "setting": "[3]", "value": "no significant effect"}, {"measurement": "inhibition of basal in vivo levels of NF-κB dependent transcription in abdominal ROI", "setting": "[4]", "value": "over 40%"}]}
{"compound": "O=C(O)c1cc(/N=N/c2ccc(S(=O)(=O)Nc3ccccn3)cc2)ccc1O", "note": "[sulfasalazine]", "values": [{"measurement": "reduction in colon length", "setting": "[5]; sulfasalazine 150 mg/kg b.i.d. subcutaneous (FIG. 19)", "value": "inhibits reduction"}, {"measurement": "distal colon inflammation score", "setting": "[5]; sulfasalazine 150 mg/kg b.i.d. subcutaneous (FIG. 20)", "value": "reduces"}, {"measurement": "distal colon crypt score", "setting": "[5]; sulfasalazine 150 mg/kg b.i.d. subcutaneous (FIG. 21)", "value": "reduces"}, {"measurement": "distal colon total histopathology score", "setting": "[5]; sulfasalazine 150 mg/kg b.i.d. subcutaneous (FIG. 23)", "value": "reduces"}, {"measurement": "stool consistency", "setting": "[5]; sulfasalazine 150 mg/kg b.i.d. subcutaneous, day 7 (FIG. 17)", "value": "No significant effect"}, {"measurement": "fecal occult blood", "setting": "[5]; sulfasalazine 150 mg/kg b.i.d. subcutaneous, day 7 (FIG. 18)", "value": "reduces"}, {"measurement": "percentage weight loss", "setting": "[5]; sulfasalazine 150 mg/kg b.i.d. subcutaneous, day 9 (FIG. 15)", "value": "No significant effect"}, {"measurement": "rectal prolapse", "setting": "[5]; sulfasalazine 150 mg/kg b.i.d. subcutaneous, day 9 (FIG. 16)", "value": "reduces"}]}
{"compound": "Infliximab: anti-TNFα monoclonal antibody", "values": [{"measurement": "induction of remission rate in CD", "setting": "[6]; [9]", "value": 50, "unit": "%"}, {"measurement": "response rate in CD", "setting": "[6]; [9]", "value": 80, "unit": "%"}, {"measurement": "patients in whom the fistula responds (closes), fistulizing CD", "setting": "[6]; human, in vivo", "value": 68, "unit": "%"}, {"measurement": "patients who develop an abscess, fistulizing CD", "setting": "[6]; human, in vivo", "value": 12, "unit": "%"}, {"measurement": "NF-κB activity", "setting": "[7]", "value": "decrease"}, {"measurement": "response rates in UC", "setting": "[8]", "value": "50-70%"}]}
